Experimental data published in paper PMC4120060 (Psychoneuroendocrinology, 2014).

Assays:
[1] = ref Mens et al., 1983; cited from earlier work
[2] = in vivo; cited from earlier work
[3] = Plasma OT concentration after OT administration; assay type: in vivo, rhesus monkeys (Macaca mulatta)
[4] = Lumbar CSF OT concentration after OT administration; details: N=6
[5] = humans; four-fold lower intramuscular dose; ref Landgraf, 1985; cited from earlier work
[6] = in vivo; cited from earlier work; remark: listed apart in the source

## CC[C@H](C)[C@@H]1NC(=O)[C@H](Cc2ccc(O)cc2)NC(=O)[C@@H](N)CSSC[C@@H](C(=O)N2CCC[C@H]2C(=O)N[C@@H](CC(C)C)C(=O)NCC(N)=O)NC(=O)[C@H](CC(N)=O)NC(=O)[C@H](CCC(N)=O)NC1=O [OT, oxytocin]
[1]
  half-life of OT in the blood: approximately 2 minutes
[2]
  passive diffusion of peptide from the plasma to the CSF: ~ 1%
[3]; IV bolus 48 IU Syntocinon, 15 min after administration, N=6, RIA
  increase in plasma OT after IV-OT, 15 min: thousand fold increase
[3]; IV bolus 48 IU Syntocinon, 60 min after administration, N=6, RIA
  increase in plasma OT after IV-OT, 60 min: hundred fold increase
[3]; IV bolus 48 IU Syntocinon, 120 min after administration, N=6, RIA
  plasma OT above baseline after IV-OT, 120 min: 100 times
[3]; intranasal spray 24 IU Syntocinon vs placebo, 60 and 120 min, N=6
  plasma OT after IN-OT versus placebo: significantly increased plasma levels of OT
[3]; intranasal spray 24 IU Syntocinon, 60 and 120 min, N=6, RIA
  increase in plasma OT over baseline after IN-OT: 100 fold
[4]; IV 48 IU Syntocinon vs placebo, 0, 60, 120 min
  lumbar CSF OT after IV-OT: no impact on lumbar CSF concentrations
[4]; intranasal spray 24 IU Syntocinon vs placebo, 0, 60, 120 min
  lumbar CSF OT after IN-OT: No significant effect
[5]
  plasma OT concentration, intramuscular relative to nasal administration: 10 fold
[6]
  CSF OT concentrations after IN-OT spray versus placebo/saline: higher

## α-melanocyte stimulating hormone
[6]
  CSF concentration of the peptide after nasal delivery: increased concentrations in cerebrospinal fluid (CSF) over baseline levels
